Patent US4079134A, “7-Acylamino-3-(5-sulfomethyl-1,3,4-thiadiazol-2-y lthiomethyl)-3-cephem-4-carboxylic acids” (SmithKline Corporation, priority 1976, dated 1978)
Converted amounts (≈) assume the structure as drawn. Where a name gives a salt, the structure may show the parent alone. Read-outs that look alike come from different tables or passages of the source.

Key:
[1] = test system: E. coli; assay: ED50 in infected mice; type: in vivo; settings: two determinations; for ED50: Escherichia coli, read-out: ED50 in mice against E. coli
[2] = test system: Kleb. pneumo.; assay: ED50 in infected mice; type: in vivo; settings: two determinations; for ED50: Mus musculus, read-out: ED50 in mice against Kleb. pneumo.
Description: (s.c.); 25 and 10 mg/kg against E. coli as well as 8.7 and 8.5 mg/kg against Kleb. pneumo. (p.o.).

[3] = test system: E. coli HH 33779; assay: MIC in vitro; type: cell-based; settings: Escherichia coli
Description: (§1) The compounds of Formula I have antibacterial activity against either Gram positive or Gram negative bacteria with minimum inhibitory concentrations (MIC's) in vitro from 0.4 to 200 μg/ml. Test results for 7-D-mandelamido-3-(5-sulfomethyl-1,3,4-thiadiazol-2-ylthiomethyl)-3-cephem-4-carboxylic acid, disodium salt, tetrahydrate (A) are: […]

[4] = test system: E. coli SK 12140; assay: MIC in vitro; type: cell-based; settings: Escherichia coli
Description: as §1

[5] = test system: Entero. aerog. ATCC 13048; assay: MIC in vitro; type: cell-based; settings: read-out: minimum inhibitory concentration (MIC)
Description: as §1

[6] = test system: Entero. cloacae HH 31254; assay: MIC in vitro; type: cell-based; settings: Enterobacter cloacae, HH31254, read-out: minimum inhibitory concentration (MIC)
Description: as §1

[7] = test system: Kleb. pneumo. SK 1200; assay: MIC in vitro; type: cell-based; settings: read-out: minimum inhibitory concentration (MIC)
Description: as §1

[8] = test system: Kleb. pneumo. SK 4200; assay: MIC in vitro; type: cell-based; settings: read-out: minimum inhibitory concentration (MIC)
Description: as §1

[9] = test system: Proteus mirabilis PN-444; assay: MIC in vitro; type: cell-based
Description: as §1

[10] = test system: Proteus morgani 179; assay: MIC in vitro; type: cell-based; settings: read-out: minimum inhibitory concentration (MIC)
Description: as §1

[11] = test system: Pseudo. aeru. HH 63; assay: MIC in vitro; type: cell-based; settings: read-out: minimum inhibitory concentration (MIC)
Description: as §1

[12] = test system: S. aureus HH 127; assay: MIC in vitro; type: cell-based; settings: Staphylococcus aureus
Description: as §1

[13] = test system: S. aureus SK 23390; assay: MIC in vitro; type: cell-based; settings: Staphylococcus aureus
Description: as §1

[14] = test system: S. aureus villaluz SK 70390; assay: MIC in vitro; type: cell-based; settings: Staphylococcus aureus, read-out: minimum inhibitory concentration (MIC)
Description: as §1

[15] = test system: Salmonella ATCC 12176; assay: MIC in vitro; type: cell-based; settings: ATCC12176, read-out: minimum inhibitory concentration (MIC)
Description: as §1

[16] = test system: Serratia marc. ATCC 13880; assay: MIC in vitro; type: cell-based; settings: ATCC13880, read-out: minimum inhibitory concentration (MIC)
Description: as §1

[17] = test system: Strep. Faecalis HH 34358; assay: MIC in vitro; type: cell-based; settings: Enterococcus faecalis, read-out: minimum inhibitory concentration (MIC)
Description: as §1

[18] = HH33779, in vitro, E. coli HH 33779, read-out: minimum inhibitory concentration (MIC)
[19] = SK12140, in vitro, E. coli SK 12140, read-out: minimum inhibitory concentration (MIC)
[20] = PN444, in vitro, Proteus mirabilis PN-444, read-out: minimum inhibitory concentration (MIC)
[21] = HH127, in vitro, S. aureus HH 127, read-out: minimum inhibitory concentration (MIC)
[22] = SK23390, in vitro, S. aureus SK 23390, read-out: minimum inhibitory concentration (MIC)
[23] = in vitro, S. aureus villaluz SK 70390

For CC1=C(C(=O)O)N2C(=O)[C@@H](NC(=O)[C@H](N)c3ccccc3)[C@H]2SC1 [Cephalexin], the ED50 ([1]; po) was 21.5 mg/kg, the ED50 ([1]; sc) was 12.5 mg/kg and the “ED50 in mice against E. coli” value ([1]; p.o.) was 18 mg/kg. For the same compound, the ED50 ([2]; po) was 19 mg/kg, the ED50 ([2]; sc) was 16.5 mg/kg and the “ED50 in mice against Kleb. pneumo.” value ([2]; p.o.) was 10 mg/kg.
O=C(O)C1=C(CSc2nnc(CS(=O)(=O)O)s2)CS[C@@H]2[C@H](NC(=O)[C@H](O)c3ccccc3)C(=O)N12 [Compound A, 7-D-mandelamido-3-(5-sulfomethyl-1,3,4-thiadiazol-2-ylthiomethyl)-3-cephem-4-carboxylic acid, disodium salt, tetrahydrate] showed an MIC [3, 18] of 0.8 µg/mL, an MIC [4, 19] of 0.4 µg/mL and an MIC [5] of 1.6 µg/mL. It also gave an MIC [6] of 0.4 µg/mL, an MIC [7] of 0.4 µg/mL and an MIC [8] of 0.4 µg/mL. The MIC [9, 20] was 0.4 µg/mL, the MIC ([10]; in vitro, Proteus morgani 179) was 1.6 µg/mL and the MIC [11] was > 200 µg/mL. It also gave an MIC [12, 21] of 1.6 µg/mL, an MIC [13, 22] of 0.4 µg/mL and an MIC [14, 23] of 200 µg/mL. It also gave an MIC [15] of 0.4 µg/mL, an MIC [16] of 25 µg/mL and an MIC [17] of 25 µg/mL. For the same compound, the ED50 ([1]; sc) was 0.3 mg/kg, the “ED50 in mice against E. coli” value ([1]; s.c.) was 0.39 mg/kg and the ED50 ([2]; po) was 8.7 mg/kg. For the same compound, the ED50 ([2]; sc) was 0.78 mg/kg, the “ED50 in mice against Kleb. pneumo.” value ([2]; p.o.) was 8.5 mg/kg and the “ED50 in mice against Kleb. pneumo.” value ([2]; s.c.) was 0.62 mg/kg.
Work on Cc1nnc(SCC2=C(C(=O)O)N3C(=O)[C@@H](NC(=O)Cn4cnnn4)[C@H]3SC2)s1 [Cefazolin] yielded an MIC [3, 18] of 1.6 µg/mL (≈ 3.52 µM), an MIC [4, 19] of 0.8 µg/mL (≈ 1.76 µM) and an MIC [5] of 1.6 µg/mL (≈ 3.52 µM). For the same compound, the MIC [6] was 0.8 µg/mL (≈ 1.76 µM), the MIC [7] was 0.8 µg/mL (≈ 1.76 µM) and the MIC [8] was 1.6 µg/mL (≈ 3.52 µM). The MIC [9, 20] was 3.1 µg/mL (≈ 6.82 µM), the MIC ([10]; in vitro, Proteus morgani 179) was > 200 µg/mL and the MIC [11] was > 200 µg/mL. The MIC [12, 21] was 0.4 µg/mL (≈ 0.88 µM), the MIC [13, 22] was 0.2 µg/mL (≈ 0.44 µM) and the MIC [14, 23] was 100 µg/mL (≈ 220 µM). For the same compound, the MIC [15] was 0.8 µg/mL (≈ 1.76 µM), the MIC [16] was > 200 µg/mL and the MIC [17] was 6.3 µg/mL (≈ 13.9 µM).
CC(=O)OCC1=C(C(=O)O)N2C(=O)[C@@H](NC(=O)Cc3cccs3)[C@H]2SC1 [Cephalothin] was tested, and the MIC ([3]; HH33779, read-out: minimum inhibitory concentration (MIC)) was 6.3 µg/mL (≈ 15.9 µM), the MIC ([4]; SK12140, read-out: minimum inhibitory concentration (MIC)) was 3.1 µg/mL (≈ 7.82 µM) and the MIC [5] was 12.5 µg/mL (≈ 31.5 µM). The MIC [6] was 6.3 µg/mL (≈ 15.9 µM), the MIC [7] was 1.6 µg/mL (≈ 4.04 µM) and the MIC [8] was 1.6 µg/mL (≈ 4.04 µM). The MIC ([9]; Proteus mirabilis, PN444, read-out: minimum inhibitory concentration (MIC)) was 0.8 µg/mL (≈ 2.02 µM), the MIC [10] was > 200 µg/mL and the MIC [11] was > 200 µg/mL. It also gave an MIC ([12]; HH127, read-out: minimum inhibitory concentration (MIC)) of 0.4 µg/mL (≈ 1.01 µM), an MIC ([13]; SK23390, read-out: minimum inhibitory concentration (MIC)) of 0.1 µg/mL (≈ 0.252 µM) and an MIC [14] of 50 µg/mL (≈ 126 µM). For the same compound, the MIC [15] was 1.6 µg/mL (≈ 4.04 µM), the MIC [16] was > 200 µg/mL and the MIC [17] was 6.3 µg/mL (≈ 15.9 µM).
